The values that follow come from US20200115357A1, “LIVER X RECEPTORS (LXR) MODULATORS” (Phenex-FXR GmbH, priority 2017, published 2020).

The structures appear in SMILES notation. Bounds are passed on as bounds.

One assay addresses T1, LXRα full length (FL) (Homo sapiens, UniProt Q13133).
T1 construct: the full length (FL) proteins of LXRα (amino acids 1-447); NP005684; expressed in transfected cells; host or cells: HEK293
T1 sequence (Q13133 1-447): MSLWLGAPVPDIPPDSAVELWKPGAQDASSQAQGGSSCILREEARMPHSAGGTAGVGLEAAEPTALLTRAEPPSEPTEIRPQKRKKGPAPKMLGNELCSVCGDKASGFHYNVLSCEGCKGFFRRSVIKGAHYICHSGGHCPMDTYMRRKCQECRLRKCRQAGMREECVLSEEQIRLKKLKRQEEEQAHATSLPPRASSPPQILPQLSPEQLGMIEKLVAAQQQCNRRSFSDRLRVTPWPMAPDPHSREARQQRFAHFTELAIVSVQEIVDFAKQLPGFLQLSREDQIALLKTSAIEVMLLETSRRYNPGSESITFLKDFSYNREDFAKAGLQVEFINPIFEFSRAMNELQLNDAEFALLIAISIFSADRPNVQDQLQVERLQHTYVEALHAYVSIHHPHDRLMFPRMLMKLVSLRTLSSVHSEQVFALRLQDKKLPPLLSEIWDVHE
As to the kind of experiment: LXR Gal4 reporter transient transfection assay (M2H), Gal4α FL. The class given is cell-based. The settings on record: HEK293 cells; read-out: M2H Gal4α FL activity range (EC50). The gist of the method: (§1)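 Mammalian two-hybrid in HEK293 cells transiently transfected with LXRα/β full-length or LBD fused to NFkB activation domain, plus GAL4-DBD fusions of SRC1 coactivator or NCoR corepressor domains and a GAL4-responsive firefly luciferase reporter. Compounds added 4 h post-transfection (vehicle ≤0.2% DMSO), 16 h incubation; firefly luciferase normalized to Renilla.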

For a further assay, the target named is T2, LXRβ full length (FL) (Homo sapiens, UniProt P55055, DUP175-175).
T2 construct: the full length (FL) proteins of LXRα (amino acids 1-447); NP005684; NP009052; expressed in transfected cells; host or cells: HEK293
T2 sequence (P55055 with tags, fused parts or gaps DUP175-175): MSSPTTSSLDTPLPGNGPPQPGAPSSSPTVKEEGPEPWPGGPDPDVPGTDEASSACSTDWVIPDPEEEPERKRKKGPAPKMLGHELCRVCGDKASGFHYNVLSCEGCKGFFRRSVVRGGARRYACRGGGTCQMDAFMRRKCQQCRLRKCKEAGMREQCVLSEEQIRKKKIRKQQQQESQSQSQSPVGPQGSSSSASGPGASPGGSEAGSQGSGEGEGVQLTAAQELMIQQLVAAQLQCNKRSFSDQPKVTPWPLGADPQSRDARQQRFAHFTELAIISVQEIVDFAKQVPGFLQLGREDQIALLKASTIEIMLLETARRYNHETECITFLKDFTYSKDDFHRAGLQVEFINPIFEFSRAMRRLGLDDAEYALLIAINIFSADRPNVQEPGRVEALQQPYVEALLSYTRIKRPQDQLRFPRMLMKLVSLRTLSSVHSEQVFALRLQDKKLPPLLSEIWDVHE
As to the kind of experiment: LXR Gal4 reporter transient transfection assay (M2H), Gal4β FL. The class given is cell-based. The settings on record: HEK293 cells; read-out: M2H Gal4β FL activity range (EC50). The gist of the method: as §1

The target in assay [1] is T3, GST-LXRβ ligand-binding domain (Homo sapiens, UniProt P55055, DUP175-175).
T3 construct: amino acids 156-461; NP009052; made in house; host or cells: E. coli
T3 sequence (P55055 with tags, fused parts or gaps DUP175-175): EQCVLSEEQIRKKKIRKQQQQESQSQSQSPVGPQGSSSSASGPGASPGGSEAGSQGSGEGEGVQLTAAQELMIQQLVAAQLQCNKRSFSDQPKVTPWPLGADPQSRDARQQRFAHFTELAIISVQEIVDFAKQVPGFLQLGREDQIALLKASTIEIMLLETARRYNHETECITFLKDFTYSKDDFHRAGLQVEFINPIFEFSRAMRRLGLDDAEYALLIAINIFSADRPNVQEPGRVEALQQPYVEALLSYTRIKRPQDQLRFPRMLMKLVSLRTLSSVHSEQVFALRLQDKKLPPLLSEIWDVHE
As to the kind of experiment: TR-FRETβ activity assay (LXRβ-LBD / NCoA3 coactivator peptide, prestimulated with 24(S)-25-epoxycholesterol). To be noted: for EC50: read-out: FRETβ activity range (EC50); for behavior in FRET assay: agonist or inverse agonist. The arrangement: key to behavior in FRET assay: ag=agonist; ia=inverse agonist. It counts as biochemical. The gist of the method: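 E. coli-expressed GST-LXRβ LBD (aa 156-461) at 76 nM with biotinylated NCoA3 coactivator peptide (400 nM), in 240 mM KCl, BSA and Triton-X-100. Anti-GST-Tb cryptate/streptavidin-XL665 TR-FRET after 1 h equilibration at 4 °C, excitation 340 nm, emission 615 and 665 nm. Run in triplicate.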

Setting [2] is: 1 μM 24(S)-25-epoxycholesterol as prestimulating agonist.

Turning to `Cc1cc(C)c(S(=O)(=O)N(Cc2ccc(-c3cccc(S(=O)(=O)CC(=O)O)c3)cc2)Cc2cccc(C(F)(F)F)c2)c(C)c1` [Example 11, 2-((4′-(((2,4,6-Trimethyl-N-(3-(trifluoromethyl)benzyl)phenyl)sulfonamido)methyl)-[1,1′-biphenyl]-3-yl)sulfonyl)acetic acid], the EC50 (on LXRα full length (FL); on LXRβ full length (FL); in assay [1] (setting [2])) was 1 to 10 µM throughout. For the same molecule, in assay [1], the “behavior in FRET assay” value is given as “ia”.

As for `COc1cc(C)cc(C)c1S(=O)(=O)N(Cc1ccc(-c2cccc(S(=O)(=O)CC(=O)O)c2)cc1)Cc1ccc(C(F)(F)F)o1` [10/8], the EC50 (on LXRα full length (FL); on LXRβ full length (FL); in assay [1] (setting [2])) was 1 to 10 µM in each case. The “behavior in FRET assay” value in assay [1] is on record as “ag”.

On to `Cc1cc(C)c(S(=O)(=O)N(Cc2ccc(-c3cccc(S(=O)(=O)CC(=O)O)c3)cc2)Cc2c(F)cccc2Cl)c(C)c1` [11/6], for which the values for the EC50 (at LXRα full length (FL); at LXRβ full length (FL); in assay [1] (setting [2])) were 0.1 to 1 µM, less than 0.1 µM and 0.1 to 1 µM, respectively. In addition, in assay [1], the “behavior in FRET assay” value is “ag”.

For the molecule `Cc1nn2cccnc2c1S(=O)(=O)N(Cc1ccc(-c2cccc(C(C)(C)C(=O)O)c2)cc1)Cc1ccc(C(F)(F)F)o1` [10/20], the 50% effective concentration (EC50) on LXRα full length (FL) was 0.1 to 1 µM; at LXRβ full length (FL), less than 0.1 µM; in assay [1] (setting [2]), 0.1 to 1 µM. Also, the “behavior in FRET assay” value in assay [1] is reported as “ag”.

Consider `O=C(O)CS(=O)(=O)c1cccc(-c2ccc(CN(Cc3ccc(C(F)(F)F)o3)S(=O)(=O)c3c(Cl)cccc3C(F)(F)F)cc2)c1` [10/3], for which the EC50 on LXRα full length (FL) is 1 to 10 µM; on LXRβ full length (FL) it was 0.1 to 1 µM; in assay [1] (setting [2]), 1 to 10 µM. The “behavior in FRET assay” value in assay [1] is reported as “ag”.

For the molecule `Cc1cccc(C)c1S(=O)(=O)N(Cc1ccc(-c2cccc(S(=O)(=O)CC(=O)O)c2)cc1)Cc1ccc(C(F)(F)F)o1` [14/2], the EC50 lay within 1 to 10 µM on LXRα full length (FL), 0.1 to 1 µM at LXRβ full length (FL) and 1 to 10 µM in assay [1] (setting [2]). Further, the “behavior in FRET assay” value in assay [1] is “ia”.

As for `Cc1cc(C)c(S(=O)(=O)N(Cc2ccc(-c3cccc(S(=O)(=O)CC(=O)O)c3)cc2)Cc2cccc(Cl)c2)c(C)c1` [11/16], the EC50 on LXRα full length (FL) was in the range of 1 to 10 µM; on LXRβ full length (FL) it was 0.1 to 1 µM. Besides, the “FRETβ activity range (EC50)” value in assay [1] (setting [2]) is “inactive”.

Consider `Cc1cc(C)c(S(=O)(=O)N(Cc2ccc(-c3cccc(S(=O)(=O)CC(=O)O)c3)cc2)C(C)(C)c2ccc(C(F)(F)F)o2)c(C)c1` [Example 17, 2-((4′-(((2,4,6-Trimethyl-N-(2-(5-(trifluoromethyl)furan-2-yl)propan-2-yl)phenyl)sulfon-amido)methyl)-[1,1′-biphenyl]-3-yl)sulfonyl)acetic acid], for which the EC50 (on LXRα full length (FL); on LXRβ full length (FL); in assay [1] (setting [2])) was 1 to 10 µM in each case.

The EC50 is the concentration giving half of the maximal effect.
